Here are results for four molecules from ChEMBL document CHEMBL1201862, “PubChem BioAssay data set” (2004).

Activity calls are given as the source filed them. Where only a bound is given, the exact number is not on record here.

The target in assay [1] is Induced myeloid leukemia cell differentiation protein Mcl-1 (Homo sapiens, UniProt Q07820). Put plainly: MCL1-BIM BH3 interaction inhibitors, dose response, biochemical, fluorescence polarization, BIM-BH3 peptide, 1536-well (AID 2217). (In general: Fluorescence polarisation rises when a labelled molecule tumbles more slowly, as on binding a larger partner.)
In another assay the target is Bcl-2-like protein 1 (Homo sapiens, UniProt Q07817). Put plainly: BCL-XL inhibitors, dose response, selectivity assay for MCL1 inhibitor project, biochemical, fluorescence polarization, 1536-well (AID 2218).
Assay [2] addresses DNA dC->dU-editing enzyme APOBEC-3A (Homo sapiens, UniProt P31941). Put plainly: Dose Response confirmation of small molecule APOBEC3A DNA Deaminase Inhibitors via a fluorescence-based single-stranded DNA deaminase assay. [Related pubchem assays (depositor defined):AID493011, AID493024]. Format: functional.
The target in assay [3] is DNA dC->dU-editing enzyme APOBEC-3G (Homo sapiens, UniProt Q9HC16). Format: functional.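 Also: Dose-response counterscreen measuring inhibition of APOBEC3G DNA deaminase activity, run while confirming APOBEC3A inhibitors.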
The target of another assay is Caspase-6 (Homo sapiens, UniProt P55212). Put plainly: human caspase-6 inhibitors, dose response, biochemical, VEID-R110 fluorescence, cherry-pick (AID 720632).
For the next assay, the target named is Caspase-7 (Homo sapiens, UniProt P55210). Put plainly: human caspase-7 inhibitors, dose response, selectivity assay for caspase-6 inhibitor project, biochemical, DEVD-R110 fluorescence, cherry-pick (AID 743295). The class given is […].
The target of assay [4] is T1, Coagulation factor XII (Homo sapiens, UniProt P00748).
T1 sequence (P00748 whole entry): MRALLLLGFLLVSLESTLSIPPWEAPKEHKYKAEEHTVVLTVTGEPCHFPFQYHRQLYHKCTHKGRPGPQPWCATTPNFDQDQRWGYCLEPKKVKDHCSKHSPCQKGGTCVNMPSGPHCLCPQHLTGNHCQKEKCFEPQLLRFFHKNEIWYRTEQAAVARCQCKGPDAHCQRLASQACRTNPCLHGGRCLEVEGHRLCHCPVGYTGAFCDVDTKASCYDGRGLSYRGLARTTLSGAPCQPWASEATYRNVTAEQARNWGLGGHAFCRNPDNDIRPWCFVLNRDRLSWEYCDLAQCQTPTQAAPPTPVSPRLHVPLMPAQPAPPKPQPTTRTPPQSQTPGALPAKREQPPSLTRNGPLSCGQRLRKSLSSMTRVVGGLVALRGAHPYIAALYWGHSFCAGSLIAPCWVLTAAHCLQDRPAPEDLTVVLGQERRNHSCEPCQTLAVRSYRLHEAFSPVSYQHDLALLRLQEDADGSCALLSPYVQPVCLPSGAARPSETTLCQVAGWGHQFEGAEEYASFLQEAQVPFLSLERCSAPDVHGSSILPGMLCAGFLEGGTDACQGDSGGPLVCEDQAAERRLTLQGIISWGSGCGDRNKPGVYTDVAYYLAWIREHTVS
Put plainly: Factor XIIa Dose Response Confirmation from Single Well HTS. [Related pubchem assays (depositor defined):AID701]. The class given is functional.

Assay [5] is described as follows: inhibitors of firefly luciferase expression or activity, dose response, H4 neuroglioma cells, luminescence (AID 1990). Format: functional, cell-based.
Assay [6] can be described thus: insulin promoter down-regulators in MIN6 cells, imaging, high-content screening, mouse beta cells (AID 1628). Format: functional.
Assay [7] has as its system BJ. Put plainly: cytotoxicity toward BJ-TERT fibroblasts, dose response, cell-based, RAS-independent, luminescence (AID 1933). Format: functional. The following applies: Homo sapiens.
Assay [8] is described as follows: Luminescence Cell-Based Dose Response HTS to Identify Inhibitors of 5'UTR Stem-Loop Driven Prion Protein mRNA Translation in H4 Neuroglioblastoma Cells. [Related pubchem assays: 1827 (Project Summary), 1813 (Primary HTS)]. The class given is functional.
Assay [9] is described as follows: cytotoxicity in MIN6 insulinoma cells, dose response, cytotoxicity control, cell-based, mouse insulinoma (AID 2122).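 Also: confirmatory high-throughput counterscreen run to flag cytotoxic compounds; mouse MIN-6 beta cells carrying an insulin promoter eGFP reporter.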 Format: functional.
Assay [10] addresses T2, Heat shock factor protein 1 (Mus musculus, UniProt P38532).
T2 sequence (P38532 whole entry): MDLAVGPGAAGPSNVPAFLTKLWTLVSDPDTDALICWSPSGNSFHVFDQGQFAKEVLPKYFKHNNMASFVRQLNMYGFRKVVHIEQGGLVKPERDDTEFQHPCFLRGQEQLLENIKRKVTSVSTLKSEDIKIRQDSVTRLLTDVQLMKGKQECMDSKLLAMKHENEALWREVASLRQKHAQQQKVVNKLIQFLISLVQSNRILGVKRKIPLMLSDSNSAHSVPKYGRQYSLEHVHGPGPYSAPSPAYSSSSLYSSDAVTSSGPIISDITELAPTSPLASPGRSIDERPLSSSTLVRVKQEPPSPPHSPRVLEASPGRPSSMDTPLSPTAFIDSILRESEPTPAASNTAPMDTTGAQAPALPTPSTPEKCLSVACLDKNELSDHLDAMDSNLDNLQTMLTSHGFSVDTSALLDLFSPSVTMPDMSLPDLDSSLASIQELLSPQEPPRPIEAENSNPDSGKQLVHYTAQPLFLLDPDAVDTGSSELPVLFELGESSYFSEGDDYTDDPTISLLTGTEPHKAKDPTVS
Put plainly: inhibition of MG132-induced HSE-luciferase signal, confirmation, cell-based, NIH3T3, luminescence, dose retest (AID 2382).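 Also: NIH3T3 fibroblasts with HSF1-driven luciferase reporter stressed by proteasome inhibitor MG132; luminescence from HSF1-driven luciferase expression after 8 hours of MG132 stress.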 The class given is functional.

The nature of assay [11]: inhibitors of SNCA 5'UTR-driven reporter translation, confirmation, H4 neuroglioma cells, luminescence (AID 1988). Format: functional, cell-based.
Assay [12] concerns BJ. Put plainly: cells. Particulars: Homo sapiens. Format: functional, cell-based.
Assay [13] deals with BJ. Put plainly: cytotoxicity toward BJ-TERT-LT-ST fibroblasts, dose response, cell-based, RAS-independent, luminescence (AID 1935).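 Also: BJ fibroblasts immortalized with TERT plus LT and ST oncogenes.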 Format: functional. The following applies: Homo sapiens.
Assay [14] in a line: cytotoxicity toward DRD oncogenic fibroblasts, dose response, cell-based, non-viral oncogenic, luminescence (AID 1934). The following applies: Homo sapiens. The class given is functional.
Assay [15] concerns the target T3, Type-1 angiotensin II receptor (Homo sapiens, UniProt P30556).
T3 sequence (P30556 whole entry): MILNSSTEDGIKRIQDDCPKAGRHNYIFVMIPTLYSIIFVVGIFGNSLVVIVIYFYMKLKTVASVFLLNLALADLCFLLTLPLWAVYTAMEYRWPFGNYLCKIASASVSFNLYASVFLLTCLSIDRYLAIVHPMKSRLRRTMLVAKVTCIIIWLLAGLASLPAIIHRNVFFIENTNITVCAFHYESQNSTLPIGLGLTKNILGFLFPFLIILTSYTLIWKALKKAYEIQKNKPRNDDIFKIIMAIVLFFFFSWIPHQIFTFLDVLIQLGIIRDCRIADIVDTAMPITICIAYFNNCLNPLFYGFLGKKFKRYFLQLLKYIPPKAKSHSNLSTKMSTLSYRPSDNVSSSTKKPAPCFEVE
Put plainly: AT1 receptor agonists, dose response, selectivity assay for APJ receptor agonist project, cell-based, uHTS hits (AID 488865).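 Also: beta-arrestin recruitment to AT1 measured by enzyme fragment complementation luminescence.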 The class given is functional.

A further assay has as its target X-box-binding protein 1 (Homo sapiens, UniProt P17861). The class given is functional, Cricetulus griseus.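 Also: confirmatory dose-response counter-screen serving a CHOP assay.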
The test system of assay [16] is BJ. Put plainly: cytotoxicity toward Ras-transformed BJeLR fibroblasts, dose response, cell-based, alamar blue fluorescence, cherrypicked samples (AID 2631).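 Also: confirmatory dose-response assay in RAS-dependent BJ fibroblasts engineered with TERT, LT and ST, with cytotoxicity read by fluorescence.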 Format: functional. The following applies: Homo sapiens. On the technique in general: Resazurin is reduced to fluorescent resorufin, in cell work by metabolically active cells.
Another assay concerns INS1. Put plainly: beta cell apoptosis inhibitors, cytokine rescue, dose response, luminescence, retest (AID 449756).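 Also: cell death triggered by IL-1 beta plus TNF-alpha plus IFN-gamma mixture; protective hits raise ATP signal compared with cytokine alone wells.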 Format: functional, cell-based. The following applies: Rattus norvegicus.
The target of assay [17] is T1, Coagulation factor XII. Put plainly: FXIIa inhibitor potency, concentration-response, biochemical (AID 716). Format: functional.

Chain of Bcl-2-like protein 1 (Q07817 whole entry): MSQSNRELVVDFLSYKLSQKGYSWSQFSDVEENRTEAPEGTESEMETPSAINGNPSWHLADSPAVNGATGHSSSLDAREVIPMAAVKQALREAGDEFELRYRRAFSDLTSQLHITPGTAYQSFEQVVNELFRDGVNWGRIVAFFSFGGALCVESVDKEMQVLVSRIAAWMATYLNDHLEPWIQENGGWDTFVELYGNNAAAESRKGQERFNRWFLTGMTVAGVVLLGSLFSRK
Chain of X-box-binding protein 1 (P17861 whole entry): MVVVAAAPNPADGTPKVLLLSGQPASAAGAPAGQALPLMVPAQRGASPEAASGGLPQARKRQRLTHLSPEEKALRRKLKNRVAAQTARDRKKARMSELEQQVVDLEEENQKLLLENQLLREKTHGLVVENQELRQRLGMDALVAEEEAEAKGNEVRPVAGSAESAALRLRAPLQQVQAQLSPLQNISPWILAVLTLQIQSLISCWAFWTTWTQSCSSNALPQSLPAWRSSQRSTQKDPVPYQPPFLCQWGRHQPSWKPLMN
Chain of Induced myeloid leukemia cell differentiation protein Mcl-1 (Q07820 whole entry): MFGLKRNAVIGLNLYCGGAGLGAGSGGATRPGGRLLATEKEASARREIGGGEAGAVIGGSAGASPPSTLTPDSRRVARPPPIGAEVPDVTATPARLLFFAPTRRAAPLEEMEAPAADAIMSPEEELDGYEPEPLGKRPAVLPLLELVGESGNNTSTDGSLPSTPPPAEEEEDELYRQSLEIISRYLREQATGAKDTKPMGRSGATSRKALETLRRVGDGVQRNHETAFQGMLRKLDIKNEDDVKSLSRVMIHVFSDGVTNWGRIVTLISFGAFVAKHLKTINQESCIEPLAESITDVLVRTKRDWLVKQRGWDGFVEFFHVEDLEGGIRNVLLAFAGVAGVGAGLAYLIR
Chain of DNA dC->dU-editing enzyme APOBEC-3A (P31941 whole entry): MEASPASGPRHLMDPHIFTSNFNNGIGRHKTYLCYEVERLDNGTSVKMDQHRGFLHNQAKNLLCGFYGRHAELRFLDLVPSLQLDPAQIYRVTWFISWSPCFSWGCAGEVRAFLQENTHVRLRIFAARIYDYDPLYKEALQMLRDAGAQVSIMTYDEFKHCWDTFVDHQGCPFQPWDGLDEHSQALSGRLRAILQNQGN
Chain of DNA dC->dU-editing enzyme APOBEC-3G (Q9HC16 whole entry): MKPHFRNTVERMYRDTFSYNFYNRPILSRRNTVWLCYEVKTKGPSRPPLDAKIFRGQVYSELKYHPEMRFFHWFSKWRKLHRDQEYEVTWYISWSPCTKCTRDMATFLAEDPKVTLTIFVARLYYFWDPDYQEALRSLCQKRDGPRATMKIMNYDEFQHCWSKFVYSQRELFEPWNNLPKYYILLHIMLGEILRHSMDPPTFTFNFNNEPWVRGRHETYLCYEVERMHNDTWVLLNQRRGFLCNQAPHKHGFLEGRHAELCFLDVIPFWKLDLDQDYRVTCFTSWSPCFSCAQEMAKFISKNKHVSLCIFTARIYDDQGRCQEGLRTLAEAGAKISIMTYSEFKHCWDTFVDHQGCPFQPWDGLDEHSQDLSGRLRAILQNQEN
Chain of Caspase-7 (P55210 24-198 limits assumed): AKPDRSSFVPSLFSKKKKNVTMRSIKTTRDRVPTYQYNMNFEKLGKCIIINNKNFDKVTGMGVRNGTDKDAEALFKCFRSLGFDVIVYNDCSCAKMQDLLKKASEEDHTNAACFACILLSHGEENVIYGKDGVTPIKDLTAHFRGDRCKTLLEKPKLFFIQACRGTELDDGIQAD
Chain of Caspase-7 (P55210 207-303 limits assumed): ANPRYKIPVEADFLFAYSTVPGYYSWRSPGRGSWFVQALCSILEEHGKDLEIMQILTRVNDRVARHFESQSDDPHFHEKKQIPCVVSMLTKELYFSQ
Chain of Caspase-6 (P55212 24-179 limits assumed): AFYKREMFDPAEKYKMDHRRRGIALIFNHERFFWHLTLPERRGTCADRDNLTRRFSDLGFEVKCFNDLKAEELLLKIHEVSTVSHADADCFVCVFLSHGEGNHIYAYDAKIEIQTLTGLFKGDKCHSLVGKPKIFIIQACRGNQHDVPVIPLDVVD
Chain of Caspase-6 (P55212 194-293 limits assumed): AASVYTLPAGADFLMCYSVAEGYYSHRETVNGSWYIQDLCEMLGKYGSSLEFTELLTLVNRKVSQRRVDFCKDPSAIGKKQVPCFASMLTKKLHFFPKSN

One may read the IC50 as the concentration that gives 50% inhibition. As a reminder, the AC50 is the midpoint of the concentration-response curve, whichever way the signal moves. As to `O=C(O)/C(=C\c1ccc(Cl)c([N+](=O)[O-])c1)c1ccc(S(=O)(=O)N2CCCC2)s1`, the IC50 in assay [1] was 15 µM (not active); against Bcl-2-like protein 1, > 109 µM (not active); in assay [2], 19.4 µM (active); in [3], 47.8 µM (active). For the same molecule, the values for the concentration at half-maximal activity (AC50) at Caspase-6 and at Caspase-7 were 3.82 µM (active) and > 70 µM (inactive), respectively.

As for `CC(C)NC(=O)c1ccccc1-c1ccccc1`, the IC50 on Coagulation factor XII [4] is > 50 µM (inactive).

A word on the EC50: it is the concentration needed to bring the measured effect to its halfway point. With `Cn1ncc2c(ON=C(N)c3ccc(C(C)(C)C)cc3)ncnc21`, the EC50 in assay [5] is > 120 µM (not active); in the assay on BJ [7], 1.32 µM (active); in assay [8], 10.1 µM (active); in [10], 7.4 µM (active); in assay [11], 7.91 µM (active); in the assay on BJ [12], 5.24 µM (inconclusive). The EC50 with BJ [13] is 4.91 µM (inconclusive); in assay [14] it was 2.83 µM (active); in assay [15], > 100 µM (inactive); with BJ [16] it was 2.92 µM (active). Further, the IC50 in assay [6] was 2.12 µM (active); in [9] it was 1.22 µM (active). Also, the “Absolute IC50 (XBP1)” value at X-box-binding protein 1 is under 10 µM. In addition, the AC50 in the assay with INS1 was 5.03 µM (active).

For `O=C(Cc1ccc(-n2cccc2)cc1)N1CCc2ccccc21`, the IC50 at Coagulation factor XII [17] was > 50 µM (inactive).
